pEC50: −log10 of the molar value. Like-named read-outs stand apart in the source and are kept apart here.
Columns and labels:
[1] = tested on: TMD8^S (DMSO passage matched, idelalisib-sensitive line); test: CellTiter-Glo viability assay at 96 h; assay type: cell-based; settings: for cell growth: FIG. 23A
Method: Growth inhibition to Idelalisib or other inhibitors was assessed using CellTiter-Glo viability assay at 96 h. […] Cell lines were analyzed by whole exome sequencing, RNASeq, and phosphoproteomics. Protein expression was measured using Simple Western and SDS/PAGE and western blot. Caspase 3/7 was measured using Caspase-Glo 3/7 assay; apoptosis was measured with Annexin V assay and propidium iodide by flow cytometry.
Cell viability EC50 was determined using a sigmoidal dose-response (variable slope) curve generated from quadruplicate samples. Statistical significance was determined using the student's t-test for cell viability and two-tailed paired t-test for apoptosis experiments in Prism (GraphPad).
Idelalisib-resistant (TMD8^R) cell line and passage-matched Idelalisib-sensitive (TMD8^S) cell line were generated according to the procedure described in Example 5 above. To characterize the resistant cells, cell viability assays, RNASeq of multidrug resistance (MDR) family of ABC transporter genes (N=33), apoptosis assays, and phosphoprotein analysis were performed. Cell viability was measured using CellTiter-Glo, as described in Example 1A above. Western blot and protein level analysis were performed after treatment with 420 nM idelalisib, 320 nM Compound B and combination thereof, using Peggy Sue (ProteinSimple) automated Western Blot system. Protein concentration (pg/μL) was quantitated using recombinant protein standards. Normalized AUC were determined for each of the treatment groups, normalized to actin. Apoptosis was assessed by propidium iodide and Annexin V/FITC staining and measured by flow cytometry, as described in Example 1A above. Western Blot with anti-p-AKT (S473) antibody and Peggy Sue were used to determine the phosphorylation state of downstream signaling components.

[2] = tested on: TMD-8 cells with the BTK (C481F) mutation; test: 96-hour Cell Titer Glo viability assay, Ibrutinib-resistant TMD-8; design: Emax: dose or concentration left out as unconfirmed; settings: for sensitivity in cell viability assay: TMD8^BTK-C481F, 96 h
[3] = tested on: TMD-8 cells; test: Apoptosis assay, Annexin V flow cytometry; assay type: cell-based; settings: 48 h, Idelalisib = 156 nM, Compound B = 8 nM, DMSO 21
Method: (§1) Apoptosis of Idelalisib in combination with Compound B in two DLBCL cell lines, OCI-Ly10 and TMD-8, was also measured. Cells plated at 0.2×10^6 cells/mL in RPMI 1640 supplemented with 20% […] and 1% penicillin and streptomycin. Cells were treated with compound, 156 nM Idelalisib, Compound B and the combination thereof. Control received DMSO at 0.2%. Cells were then incubated at 37 C for 48 hours. Apoptosis was measured using Annexin V/FITC kit, and analyzed by flow cytometry. Apoptosis was also measured using or Annexin V/7ADD kit (Beckman Coulter). Fluorescence was measured by flow cytometry using BD LSRII and the results were analyzed using FACSDiva.

[4] = tested on: OCI-LY10 cells; test: Apoptosis assay, Annexin V flow cytometry; assay type: cell-based; settings: 48 h, Idelalisib = 156 nM, Compound B = 8 nM, DMSO 29
Method: as §1

[5] = tested on: A20 mutant (TNFAIP3 Q143*) TMD-8 cells; test: 96-hour Cell Titer Glo viability assay, Ibrutinib-resistant TMD-8; settings: for pEC50: Homo sapiens, TMD8, read-out: EC50, cell viability; for sensitivity in cell viability assay: TMD8^A20-Q143*, 96 h
[6] = tested on: Ri-1 cells; test: CellTiter-Glo cell viability assay, four days (Example 1A); assay type: cell-based; settings: for pEC50: Ri-1, Ri-1; for growth of cell line: single agent
Method: (§2) In vitro anti-proliferative activity of agents was assessed using CellTiter-Glo™ Assay (Promega), which quantifies cellular ATP level. Test compounds were dissolved in DMSO to prepare 10 mM stock solutions. […] For drug combination studies, a two or three fold horizontal serial dilution pattern was used for Compound B and combined with Idelalisib using a two, three, or four fold vertical serial dilution pattern. […] The final DMSO concentration in the test media was 0.2%. Each combination used replicates of four plates to generate sufficient data for evaluation of synergy scores. […] The assay growth medium for all lines was RPMI supplemented with 20% FBS and […] penicillin-streptomycin. Seeding density was optimized for growth rate over 96 hours for each cell line and was between 10,000-30,000 cells per well of 96 well plates. After four days incubation with agents at 37° C./5% CO2, the CellTiter-Glo™ assay was performed following the manufacturer's protocol. Relative luminescence units were quantified using a Biotek Synergy luminometer.
(§3) Data from a plate was excluded if either Z′<0.5 or the growth of the cell lines was less than one doubling in the four day assay period. Z′ was calculated using the formula: Z′=[1−((3(σstau+σDMSO))/(|μDMSO−μstau|)] where σstau and σDMSO are the standard deviation of the 100% inhibited staurosporine and 0% inhibited DMSO control wells, respectively. μDMSO and μstau are the mean of the […] control wells, respectively. The raw Cell Titer Glo signal was normalized according to the following formula: [(raw value)−(100% inhibited staurosporine control)]/[(DMSO control value)−(100% inhibited staurosporine control)].
(§4) EC50 was determined using GraphPad Prism or Dose Response software by fitting the data to a four parameters variable slope model. […] For combination studies, the EC50 at each test article concentration was determined from graphs of the EC50 of one compound at a fixed dose of second compound. The EC50 shift was calculated by taking the ratio of the EC50 of the single agent by the EC50 at the maximum dose of the second agent.
(§5) Synergy was analyzed using the MacSynergy II program, which calculates a theoretical additive value for the drug combination that is based on the values generated by each drug alone using the Bliss Independence mathematical model. The Bliss independence model assumes that each drug acts independently. The theoretical additive effect for each compound is calculated and then subtracted from the actual effect. Synergy is defined by greater than expected effects while antagonism is defined by less than expected effects. In this example, a synergy volume greater than 50 was considered significant. The EC50 values determined in drug combination studies represent a single experiment run in quadruplicate and therefore may differ slightly from the single agent EC50 values.

[7] = tested on: Pfeiffer cells; test: as above; assay type: cell-based; settings: for pEC50: Homo sapiens
Method: as §2, §3, §4, §5

[8] = tested on: TMD-8 cells; test: as above; assay type: cell-based; settings: for pEC50: Homo sapiens; for growth of cell line: single agent
Method: as §2, §3, §4, §5

[9] = Idelalisib 0 nM, read-out: EC50 of Compound B in Combination with Idelalisib
[10] = bound stated for three ABC-DLBCL cell lines, read-out: EC50, growth inhibition, single agent
[11] = TMD8, TMD-8, bound stated for three ABC-DLBCL cell lines, read-out: EC50, growth inhibition, single agent
[12] = Compound B 45 nM, read-out: EC50 of Idelalisib when Combined with Compound B

Structure (SMILES): CC#CC(=O)N1CC[C@@H](n2c(=O)n(-c3ccc(Oc4ccccc4)cc3)c3c(N)ncnc32)C1 [Compound B, 6-amino-9-[(3R)-1-(2-butynoyl)-3-pyrrolidinyl]-7-(4-phenoxyphenyl)-7,9-dihydro-8H-purin-8-one]
- cell growth [1]: inhibited cell growth
- pEC50 ([1]; unit inferred, read-out: EC50, cell viability): 8.92
- sensitivity in cell viability assay [2]: resistant
- % Annexin V+ [3]: 44%
- % Annexin V+ [4]: 26%
- pEC50 [5]: < 5.00
- sensitivity in cell viability assay [5]: resistant
- pEC50 [6, 9]: 8.30
- pEC50 ([6]; Idelalisib 156 nM, read-out: EC50 of Compound B in Combination with Idelalisib): 8.70
- pEC50 ([6]; Idelalisib 625 nM, read-out: EC50 of Compound B in Combination with Idelalisib): 8.70
- pEC50 [6, 10]: > 7.59
- growth of cell line ([6]; Ri-1): inhibited the growth
- Compound B EC50 shift (fold) ([6]; Ri-1, single agent EC50 / EC50 at maximum dose of Idelalisib): 2.5 fold
- pEC50 [7, 9]: < 5.00
- Compound B EC50 shift (fold) ([7]; No EC50 shift observed at up to 2.5 μM): None^c
- pEC50 ([8]; TMD8, TMD-8, Idelalisib 0 nM, read-out: EC50 of Compound B in Combination with Idelalisib): 7.96
- pEC50 ([8]; TMD8, TMD-8, Idelalisib 156 nM, read-out: EC50 of Compound B in Combination with Idelalisib): 8.30
- pEC50 ([8]; TMD8, TMD-8, Idelalisib 625 nM, read-out: EC50 of Compound B in Combination with Idelalisib): 8.40
- pEC50 [8, 11]: > 7.59
- growth of cell line ([8]; TMD-8): inhibited the growth
- Compound B EC50 shift (fold) ([8]; TMD-8, single agent EC50 / EC50 at maximum dose of Idelalisib): 2.75 fold

Structure (SMILES): CCC(Nc1ncnc2[nH]cnc12)c1nc2cccc(F)c2c(=O)n1-c1ccccc1 (centres unmarked) [Idelalisib, 2-(1-((9H-Purin-6-yl)amino)propyl)-5-fluoro-3-phenylquinazolin-4(3H)-one]
- pEC50 ([1]; Example 7, read-out: EC50, cell viability): 6.66
- cell growth [1]: inhibited cell growth
- inhibition at 1 µM ([1]; at 1 μM, read-out: Growth inhibition): 92%
- Emax ([2]; Homo sapiens, TMD8, read-out: Emax, growth inhibition): 14%
- sensitivity in cell viability assay [2]: resistant
- % Annexin V+ [3]: 45%
- % Annexin V+ [4]: 25%
- pEC50 [5]: ≤ 5.37
- sensitivity in cell viability assay [5]: resistant
- pEC50 ([6]; Compound B 0 nM, read-out: EC50 of Idelalisib when Combined with Compound B): 6.35
- pEC50 ([6]; Compound B 5 nM, read-out: EC50 of Idelalisib when Combined with Compound B): 6.43
- pEC50 ([6]; Compound B 15 nM, read-out: EC50 of Idelalisib when Combined with Compound B): 6.43
- pEC50 [6, 12]: 6.43
- pEC50 [6, 10]: > 6.68
- growth of cell line ([6]; Ri-1): inhibited the growth
- Idelalisib EC50 shift (fold) ([6]; Ri-1, single agent EC50 / EC50 at maximum dose of Compound B): 1.2 fold
- pEC50 [7, 12]: 6.76
- Idelalisib EC50 shift (fold) ([7]; single agent EC50 / EC50 at maximum dose of Compound B): 1 fold
- pEC50 ([8]; TMD8, TMD8, addition of Compound B at 6 nM, read-out: EC50 of idelalisib): 6.97
- pEC50 ([8]; TMD8, TMD8, addition of Compound B at 12 nM, read-out: EC50 of idelalisib): 7.47
- pEC50 ([8]; TMD8, TMD8, addition of Compound B at 25 nM, read-out: EC50 of idelalisib): 7.62
- pEC50 ([8]; TMD8, TMD8, without Compound B, read-out: EC50 of idelalisib): 6.60
- pEC50 ([8]; TMD8, TMD-8, Compound B 0 nM, read-out: EC50 of Idelalisib when Combined with Compound B): 6.60
- pEC50 ([8]; TMD8, TMD-8, Compound B 5 nM, read-out: EC50 of Idelalisib when Combined with Compound B): 6.89
- pEC50 ([8]; TMD8, TMD-8, Compound B 15 nM, read-out: EC50 of Idelalisib when Combined with Compound B): 7.49
- pEC50 ([8]; TMD8, TMD-8, Compound B 45 nM, read-out: EC50 of Idelalisib when Combined with Compound B): 7.62
- pEC50 [8, 11]: > 6.68
- growth of cell line ([8]; TMD-8): inhibited the growth
- Idelalisib EC50 shift (fold) ([8]; TMD-8, single agent EC50 / EC50 at maximum dose of Compound B): 10.6 fold
